Measured values: US20240059661A1, “SOLID STATE FORMS OF 2-(3,5-DICHLOROPHENYL)-1,3-BENZOXAZOLE-6-CARBOXYLIC ACID OR ITS PHARMACEUTICALLY ACCEPTABLE SALTS AND POLYMORPHS THEREOF” (CIPLA LIMITED, priority 2021, published 2024)

Legend:
[1] = Forced degradation study (solid state stability) of Tafamidis Form C1; assay type: physicochemical
Description: Forced degradation is synonymous with stress testing and purposeful degradation. Purposeful degradation can be a useful tool to predict the stability of a drug substance or a drug product with effects on purity, potency, and safety. It is imperative to know the impurity profile and behavior of a drug substance under various stress conditions. Forced degradation also plays an important role in the development of analytical methods, setting specifications, and design of formulations under the quality-by-design (QbD) paradigm. The nature of the stress testing depends on the individual drug substance and the type of drug product (e.g., solid oral dosage, lyophilized powders, and liquid formulations) involved.
A forced degradation study was performed to generate potential degradation products and assess stability liabilities. Tafamidis form C1 prepared as per the present disclosure was subjected to forced degradation study with below specified conditions. […] The samples were analysed at pre-determined time intervals for PXRD, HPLC purity and water content. […] The forced degradation results for Tafamidis Form C1 are tabulated below in Table 1.

[2] = Indicative stability of Tafamidis Form C1 on storage up to 6 months; assay type: physicochemical
Description: The stability of Tafamidis form C1 prepared as per the present disclosure was studied by storing the samples at 2-8° C., 25° C./60% RH; and 40° C./75% RH storage conditions upto 6 months. The samples were analysed for PXRD, HPLC purity and water content at pre-determined time intervals of 1M, 2M, 3M and 6M.
The stability data collected after 6 months of storage are tabulated below in Table 2.

For `O=C(O)c1ccc2nc(-c3cc(Cl)cc(Cl)c3)oc2c1` [Form C1, 2-(3,5-Dichlorophenyl)-1,3-benzoxazole-6-carboxylic acid], the Description ([1]; 0 D, Initial) was “off-white powder”, the “HPLC Purity” value ([1]; 0 D, Initial) was 99.98 and the PXRD ([1]; 0 D, Initial) was “Form C1”. The Water content KF ([1]; 0 D, Initial) was 0.57%, the Description ([1]; 5 D, 60°C/80% RH) was “off-white powder” and the “HPLC Purity” value ([1]; 5 D, 60°C/80% RH) was 99.97. For the same compound, the Water content KF ([1]; 5 D, 60°C/80% RH) was 0.62%, the Description ([1]; 6 Hours (DHS), 105° C.) was “off-white powder” and the “HPLC Purity” value ([1]; 6 Hours (DHS), 105° C.) was 99.98. The Description ([1]; 6 Hours, 120° C.) was “off-white powder”, the “HPLC Purity” value ([1]; 6 Hours, 120° C.) was 99.99 and the Description ([1]; 7 D, 25° C./60% RH Closed cup) was “off-white powder”. For the same compound, the “HPLC Purity” value ([1]; 7 D, 25° C./60% RH Closed cup) was 99.98, the Water content KF ([1]; 7 D, 25° C./60% RH Closed cup) was 0.42% and the Description ([1]; 7 D, 25° C./60% RH Open cup) was “off-white powder”. For the same compound, the “HPLC Purity” value ([1]; 7 D, 25° C./60% RH Open cup) was 99.98, the Water content KF ([1]; 7 D, 25° C./60% RH Open cup) was 0.48% and the Description ([1]; 7 D, 40° C./75% RH Closed cup) was “off-white powder”. The “HPLC Purity” value ([1]; 7 D, 40° C./75% RH Closed cup) was 99.98, the Water content KF ([1]; 7 D, 40° C./75% RH Closed cup) was 0.45% and the Description ([1]; 7 D, 40° C./75% RH Open cup) was “off-white powder”. For the same compound, the “HPLC Purity” value ([1]; 7 D, 40° C./75% RH Open cup) was 99.98, the Water content KF ([1]; 7 D, 40° C./75% RH Open cup) was 0.72% and the Description ([1]; 10 TORR) was “off-white powder”. For the same compound, the “HPLC Purity” value ([1]; 10 TORR) was 99.99, the “degradation under stress conditions” value ([1]; any of the stress conditions) was “did not show any degradation” and the “change with respect to PXRD, HPLC purity and water content” value ([1]; forced degradation, all conditions of Table 1) was “no significant change”. For the same compound, the Description ([2]; 0, Initial) was “Off-white colour”, the “HPLC Purity” value ([2]; 0, Initial) was 99.99 and the PXRD ([2]; 0, Initial) was “Form C1”. For the same compound, the Water content KF ([2]; 0, Initial) was 0.34%, the Description ([2]; 1 month, 2-8° C.) was “Off-white colour” and the “HPLC Purity” value ([2]; 1 month, 2-8° C.) was 99.98. The Water content KF ([2]; 1 month, 2-8° C.) was 0.88%, the Description ([2]; 1 month, 25° C./60% RH) was “Off-white colour” and the “HPLC Purity” value ([2]; 1 month, 25° C./60% RH) was 99.98. The Water content KF ([2]; 1 month, 25° C./60% RH) was 0.85%, the Description ([2]; 1 month, 40° C./75% RH) was “Off-white colour” and the “HPLC Purity” value ([2]; 1 month, 40° C./75% RH) was 99.99. The Water content KF ([2]; 1 month, 40° C./75% RH) was 0.8%, the Description ([2]; 2 months, 2-8° C.) was “Off-white colour” and the “HPLC Purity” value ([2]; 2 months, 2-8° C.) was 99.98. For the same compound, the Water content KF ([2]; 2 months, 2-8° C.) was 0.63%, the Description ([2]; 2 months, 25° C./60% RH) was “Off-white colour” and the “HPLC Purity” value ([2]; 2 months, 25° C./60% RH) was 99.98. For the same compound, the Water content KF ([2]; 2 months, 25° C./60% RH) was 0.68%, the Description ([2]; 2 months, 40° C./75% RH) was “Off-white colour” and the “HPLC Purity” value ([2]; 2 months, 40° C./75% RH) was 99.98. The Water content KF ([2]; 2 months, 40° C./75% RH) was 0.78%, the Description ([2]; 3 months, 2-8° C.) was “Off-white colour” and the “HPLC Purity” value ([2]; 3 months, 2-8° C.) was 99.98. The Water content KF ([2]; 3 months, 2-8° C.) was 1.02%, the Description ([2]; 3 months, 25° C./60% RH) was “Off-white colour” and the “HPLC Purity” value ([2]; 3 months, 25° C./60% RH) was 99.98. The Water content KF ([2]; 3 months, 25° C./60% RH) was 0.92%, the Description ([2]; 3 months, 40° C./75% RH) was “Off-white colour” and the “HPLC Purity” value ([2]; 3 months, 40° C./75% RH) was 99.98. The Water content KF ([2]; 3 months, 40° C./75% RH) was 0.85%, the Description ([2]; 6 months, 2-8° C.) was “Off-white colour” and the “HPLC Purity” value ([2]; 6 months, 2-8° C.) was 99.98. For the same compound, the Water content KF ([2]; 6 months, 2-8° C.) was 0.79%, the Description ([2]; 6 months, 25° C./60% RH) was “Off-white colour” and the “HPLC Purity” value ([2]; 6 months, 25° C./60% RH) was 99.98. For the same compound, the Water content KF ([2]; 6 months, 25° C./60% RH) was 0.61%, the Description ([2]; 6 months, 40° C./75% RH) was “Off-white colour” and the “HPLC Purity” value ([2]; 6 months, 40° C./75% RH) was 99.98. The Water content KF ([2]; 6 months, 40° C./75% RH) was 0.65% and the “change with respect to PXRD, HPLC purity and water content” value ([2]; all the storage conditions (2-8° C., 25° C./60% RH, 40° C./75% RH) up to 6 months) was “no significant change”.
